In patent publication US20250212873A1, “VOLATILE HDAC INHIBITORS FOR THERAPEUTIC AND PLANT APPLICATIONS” (The Regents of the University of California, priority 2022, published 2025):
Entries after “also recorded” stand apart in the source; their conditions may differ. Counter-ions that a name gives are not always drawn.

Key:
PC3 Cancer cell line = experiment: Cancer cell viability assay, PC3; type: cell-based; conditions: 33 uM, triplicates
Method: (§1) Cells were maintained in a 37° C. incubator with 5% CO2 throughout the experiment. Compound stocks were dissolved in 10% DMSO, but final concentrations were made fresh in complete media as needed. 10% DMSO solvent was used as control in complete media. Cells were seeded onto 12-well plates and allowed 12-24 hours until treatment began to allow cells to adhere to wells. This was followed by minimum 5-day treatment of compounds, changing the media with treatment every 48 hours. Cell lines A549, PC3, and SK-MEL-5 were seeded at 8000 cells/well which would provide 80-100% confluency after 6-day growth. SH-SY5Y was seeded at 8000 cells/well then 16,000 cells/well due to slower growth and given at least 10 days for sufficient growth. After allotted growth times, cell counts were performed via Countess™ automated cell counter. All assays were completed with a minimum of triplicate replicates for all conditions and analyzed through GraphPad Prism One-way ANOVA for significance.

bacteria and fungi = conditions: literature (Debebe et al.); cited from earlier work
SH-SY5Y Cancer cell line = experiment: Cancer cell viability assay, SH-SY5Y; type: cell-based; conditions: 33 micro-molar
Method: as §1

[1] = test system: Arabidopsis thaliana seedlings; experiment: Odor Exposure assay, Arabidopsis thaliana seedlings (root and leaf development); type: in vivo; conditions: for root growth: 3.5-day exposure; for root growth / lateral root growth (number of lateral roots) / leaf development (number of large / true leaves): headspace of 1% v/v in Paraffin oil; for lateral root growth (number of lateral roots) / root growth (primary root length) / leaf development (number of large / true leaves): 7-day exposure; for root growth (primary root length): headspace of solution in Paraffin oil
Method: The Odor Exposure assay consists of controlled exposure of volatile odor compounds to model plant Arabidopsis within enclosed aquariums and similar growth conditions (23° C. with a 12-hour light/dark cycle). For Arabidopsis, seedlings were aligned on agar plates for growth after a 4-day cold treatment process. The agar plates with seedlings were then placed in enclosed aquariums with moist paper towels soaked in 10 ml of DI water for humidity. The plates were placed along the wall, approximately 12 cm from odor dispensers which resided in the center of the glass tank.
The test compound odor dispensers, consisting of (60×15 mm) polystyrene Petri dishes containing 2 ml of 1% v/v in PO, are replaced at the 3.5, 5, and 6-day time mark during the 7-day experiment. Root growth is marked during each time mark and the plates were imaged. The plants are to be collected after the 7-day exposure, photographed, and the leaves/roots carefully dissected separated, flash frozen in liquid nitrogen, and preserved for future sequencing. Root growth is measured using ImageJ.
In order to study the physiological effects of long-term exposure to microbial volatiles the model system Arabidopsis was exposed for […] to diacetyl, a volatile chemical emitted by fermentation by yeast or microbial degradation in the soil associated with roots (R. J. Morcillo et al., EMBO J 39, e102602 (2020); M. A. Farag, et al., Phytochemistry 67, 2262-2268 (2006); and C. M. Ryu et al., P Natl Acad Sci USA 100, 4927-4932 (2003). The Odor Exposure assay consisted of controlled exposure of volatile HDAC inhibiting compounds to model plant Arabidopsis within enclosed aquariums and similar growth conditions. The test compound odor cartridges, consisting of 60×15 mm polystyrene Petri dishes containing 2 ml of indicated concentration in Paraffin Oil, were replaced at the 3.5, 5, and 6-day time mark during the 7-day experiment (FIG. 1A, left). In separate experiments the weight loss from the odor cartridges over time was measured and used it to calculate the concentration of diacetyl in the glass chambers in parts per million (FIG. 1A, right).
In order to directly evaluate whether exposure to vapors of the four HDAC-inhibitory VOCs affect root development, we performed a set of experiments using A. thaliana seedlings as before. Solutions for each of the four chemicals on a small petri dish were placed away from the seedlings growing in agar plate and enclosed in glass tank. The Root tips were marked at specified days post treatment start and photographs analyzed. The plants were collected after the 7-day exposure, photographed, and the roots were separated. Detailed measurements were made from the photos using ImageJ and the root length and numbers of lateral roots quantified at day 3.5 and day 7 after start if the treatment (FIG. 1B).
The Odor Exposure assay consists of controlled exposure of volatile odor compounds to model plant Arabidopsis within enclosed aquariums and similar growth conditions (23° C. with a 12-hour light/dark cycle). The test compound odor cartridges, consisting of (60×15 mm) polystyrene Petri dishes containing 2 ml of 1% v/v in paraffin oil (PO), were replaced at the 3.5, 5, and 6-day time mark during the 7-day experiment. Root growth was marked during each time point and the plates were imaged. Numbers of true leaves were also counted. The plants are to be collected after the 7-day exposure, photographed, and the leaves/roots carefully dissected separated, flash frozen in liquid nitrogen, and preserved for future sequencing. Root growth is measured using ImageJ.

[2] = test system: histone deacetylase enzymes (HDACs); conditions: literature (Shimazu et al.); cited from earlier work
[3] = test system: A. thaliana plants (Col-0); experiment: Weed killing assay; type: in vivo, Arabidopsis thaliana; conditions: 1% (volume/volume) in PO, 7 days vapor exposure, 4 weeks recovery
Text: Since large scale changes in gene expression occur it is presumed that higher doses of some of the compounds could negatively affect some plants, even causing death. Since Arabidopsis thaliana is also considered a type of weed and goes by the common name Thale cress, it was used as a model to test the weed killing potential at higher doses. In order to evaluate the activity of some of these volatiles in plant killing twenty-seven day old A. thaliana plants (Col-0), that had been transplanted at day 7 to soil, were placed in 10-gallon glass aquarium as chamber along with a petridish containing 2 ml of chemical dissolved in PO at 1% (volume/volume) or PO alone were placed at the other side of the container. Plants were exposed to odor vapors for 7 days and observed for death.
Twenty-seven day old A. thaliana plants (Col-0), that had been transplanted at day 7 to soil, were placed in 10-gallon glass aquarium as chamber along with a petridish containing 2 ml of chemical dissolved in PO at 1% (volume/volume) or PO alone were placed at the other side of the container. Plants were exposed to odor vapors for 7 days and observed for death.

[4] = test system: Class I and Class II HDACs; experiment: In vitro assays with purified human Class I and II HDACs (panel statements); type: biochemical; conditions: 15 mM
Method: Presented are data for selected compounds that act as Histone deacetylase inhibitors in vitro or HDAC inhibitors. 26 compounds were screened against purified human HDACs.
HDAC activity of class I HDACs (HDAC1 and 3) was measured with the fluorometric HDAC Activity Assay kit: HDAC1 (10011563, Cayman Chemical, Ann Arbor, MI) and HDAC3 (50073 BPS Bioscience, San Diego, CA), according to the manufacturer's instructions. HDAC activity of class II HDACs (HDAC4 and HDAC6) was measured with the fluorometric HDAC Activity Assay kit: HDAC4, […] (50064 and 50076, BPS Bioscience, San Diego, CA), according to the manufacturer's instructions. All compounds were tested in single dose duplicate mode at 15 mM concentrations in 1% DMSO, based on the IC50 of 2,3-butanedione established in earlier work. Due to interference, concentrations of >30 mM were not used in the IC50 calculation. To account for any interference at lower concentrations, all baseline measurements of blank wells (no HDAC enzyme) were performed and subtracted with the various concentrations of 2,3-butanedione.
Diacetyl and 3 structurally related VOCs were evaluated using in vitro assay kits for measuring activity of four purified HDACs. Of the four VOCs), each has a different functional group, two are natural in origin, previously detected from microbes that are known to be present in soil (M. C. Lemfack et al., Nucleic Acids Res 46, D1261-D1265 (2018); and R. H. Cagan, W. N. Zeiger, Proc. Nat. Acad. Sci. U.S.A. 75, 4679-4683 (1978)) and two that are not (α-angelica lactone and ethyl pyruvate). […] All 4 VOCs inhibited both Class I HDACs (L. L. Walling, The Myriad Plant Responses to Herbivores. J Plant Growth Regul 19, 195-216 (2000); and M. Heil, R. Karban, Trends Ecol Evol 25, 137-144 (2010)) and the Class II HDAC6 with differences in degree (FIG. 2A,B).

[5] = test system: A. thaliana plants (Col-0); experiment: Flowering assay; type: in vivo, Arabidopsis thaliana; conditions: vapors from 0.1% solution
Text: Dramatic effects of VOCs have been seen in the seedling stage. The effects on with flowering timing were observed, since the process involves numerous changes in gene expression and therefore potentially susceptible to HDAC inhibitory volatiles. Mutants in HDACs like HDA5 show delayed flowering due to upregulation of flowering repressor genes like FLC and MAF1 (M. Luo et al., Plant J 82, 925-936 (2015)). Conversely, mutants in HDA9lead to early flowering due to increased expression of FLOWERING LOCUS T (FT) and AGAMOUS-LIKE 19 (AGL19) (M. J. Kang, et al., New Phytol 206, 281-294 (2015)). We placed 3 weeks old A. thaliana plants in the glass chambers and exposed them to the vapors of two of the VOCs, diacetyl and α-angelica lactone volatilizing from 0.1% solutions in the glass chamber.
Twenty-seven day old A. thaliana plants (Col-0), that had been transplanted at day 7 to soil, were placed in 10-gallon glass aquarium as chamber along with a petridish containing 2 ml of chemical dissolved in PO or PO alone were placed at the other side of the container. Plants were exposed to odors until all plants began to flower, with odor cartridges being replaced daily. Signs of flower buds opening were counted as plant flowering. One-way analysis of Variance (ANOVA) between groups was performed for plant exposure quantitative data using Graph Pad Prism 9.

[6] = listed as Alpha angelica lactone

CCOC(=O)C(C)=O [ethyl pyruvate]
changes in proliferation, PC3 (PC3 Cancer cell line): No Significant changes in proliferations
antimicrobial action on bacteria and fungi (bacteria and fungi): potent antimicrobial
changes in proliferation, SH-SY5Y (SH-SY5Y Cancer cell line): Significant changes in proliferations were noted only for 33 micro molar 2,3-butanedione treatment
root growth [1]: significant root growth inhibition
lateral root growth (number of lateral roots) [1]: inhibition; also recorded: significant phenotypic changes
lateral root growth (number of lateral roots) ([1]; listed as Ethyl pyruvate): inhibited
root growth (primary root length) [1]: inhibited

CCC(=O)C(=O)CC [3,4-hexanedione]
lateral root growth (number of lateral roots) [1]: significant phenotypic changes; also recorded: promoted lateral root growth
leaf development (number of large / true leaves) [1]: changes in the number of true leaf development/growth; also recorded: significant increase; also recorded: significant phenotypic changes; also recorded: The trend for the compounds were to inhibit leave development, except for 3,4-hexanedione
root growth (primary root length) [1]: all the compounds except 3,4-hexanedione demonstrated significant root growth inhibition

CC(O)CC(=O)O (stereo not drawn) [β-hydroxybutyrate]
inhibition of histone deacetylase enzymes (HDACs) [2]: known inhibitor

CCCOC=O [propyl formate]
changes in proliferation, PC3 (PC3 Cancer cell line): No Significant changes in proliferations
plants killed (dead) [3]: 7 of 8
changes in proliferation, SH-SY5Y (SH-SY5Y Cancer cell line): Significant changes in proliferations were noted only for 33 micro molar 2,3-butanedione treatment

CC1=CCC(=O)O1 [alpha angelica lactone]
inhibition of Class II HDACs compared with Class I [4]: inhibits only Class 2 HDACs strongly
inhibition of Class II HDACs compared with Class I ([4]; listed as α-angelica lactone): inhibited Class II HDACs more strongly than Class I
delay in flowering (in words) [5]: approximately a week
root growth [1]: significant root growth inhibition
lateral root growth (number of lateral roots) [1, 6]: significant phenotypic changes; also recorded: promoted lateral root growth
leaf development (number of large / true leaves) [1, 6]: significant phenotypic changes
leaf development (number of large / true leaves) ([1]; listed as a-angelica lactone): significant decreases
leaf development (number of large / true leaves) ([1]; listed as α-Angelica lactone): changes in the number of true leaf development/growth
